Consider one compound from patent publication US20090074869A1, “PHARMACEUTICAL FORMULATIONS” (Schering Corporation, priority 2003, published 2009).

One data set concerns the target PDE V (Homo sapiens, UniProt O76074). Put plainly: PDE V inhibition. In kind it is biochemical.
Data set [1] is described as follows: absorption and bioavailability tests in animals. Type of data set: in vivo.
A short description of data set [2]: solubility in water and wettability of the crystalline form. In kind it is physicochemical.

Consider `CCn1c(=O)c2c(nc(N[C@@H]3CCC[C@H]3O)n2Cc2ccc(OC)c(Br)c2)n(CCO)c1=O` [7-[(3-Bromo-4-methoxyphenyl)methyl]-1-ethyl-3,7-dihydro-8-[[(1R,2R)-2-hydroxycyclopentyl]amino]-3-(2-hydroxyethyl)-1H-purine-2,6-dione], for which, at PDE V, the “effectiveness as a PDE V inhibitor” value is on record as “particularly effective” and the “specificity for PDE isozyme” value is “specificity for the PDE V isozyme”. In data set [1] (in vivo), the “absorption from the gastrointestinal tract” value is given as “slow”. Moreover, the bioavailability result in data set [1] (tests conducted so far in animals) is “low”. Further, the solubility in water entry in data set [2] is given as “poor”. For the same compound, the wettability result in data set [2] (crystalline form) was “poor”.
